# US20260138961A1, “MODULATORS OF MITOCHONDRIAL DNA REPLICATION” (Pretzel Therapeutics, Inc., priority 2022, published 2026)
# Biological target: T1, POLγA:A467T (Homo sapiens, UniProt P54098, A467T)
# T1 sequence (P54098 1-1239 A467T): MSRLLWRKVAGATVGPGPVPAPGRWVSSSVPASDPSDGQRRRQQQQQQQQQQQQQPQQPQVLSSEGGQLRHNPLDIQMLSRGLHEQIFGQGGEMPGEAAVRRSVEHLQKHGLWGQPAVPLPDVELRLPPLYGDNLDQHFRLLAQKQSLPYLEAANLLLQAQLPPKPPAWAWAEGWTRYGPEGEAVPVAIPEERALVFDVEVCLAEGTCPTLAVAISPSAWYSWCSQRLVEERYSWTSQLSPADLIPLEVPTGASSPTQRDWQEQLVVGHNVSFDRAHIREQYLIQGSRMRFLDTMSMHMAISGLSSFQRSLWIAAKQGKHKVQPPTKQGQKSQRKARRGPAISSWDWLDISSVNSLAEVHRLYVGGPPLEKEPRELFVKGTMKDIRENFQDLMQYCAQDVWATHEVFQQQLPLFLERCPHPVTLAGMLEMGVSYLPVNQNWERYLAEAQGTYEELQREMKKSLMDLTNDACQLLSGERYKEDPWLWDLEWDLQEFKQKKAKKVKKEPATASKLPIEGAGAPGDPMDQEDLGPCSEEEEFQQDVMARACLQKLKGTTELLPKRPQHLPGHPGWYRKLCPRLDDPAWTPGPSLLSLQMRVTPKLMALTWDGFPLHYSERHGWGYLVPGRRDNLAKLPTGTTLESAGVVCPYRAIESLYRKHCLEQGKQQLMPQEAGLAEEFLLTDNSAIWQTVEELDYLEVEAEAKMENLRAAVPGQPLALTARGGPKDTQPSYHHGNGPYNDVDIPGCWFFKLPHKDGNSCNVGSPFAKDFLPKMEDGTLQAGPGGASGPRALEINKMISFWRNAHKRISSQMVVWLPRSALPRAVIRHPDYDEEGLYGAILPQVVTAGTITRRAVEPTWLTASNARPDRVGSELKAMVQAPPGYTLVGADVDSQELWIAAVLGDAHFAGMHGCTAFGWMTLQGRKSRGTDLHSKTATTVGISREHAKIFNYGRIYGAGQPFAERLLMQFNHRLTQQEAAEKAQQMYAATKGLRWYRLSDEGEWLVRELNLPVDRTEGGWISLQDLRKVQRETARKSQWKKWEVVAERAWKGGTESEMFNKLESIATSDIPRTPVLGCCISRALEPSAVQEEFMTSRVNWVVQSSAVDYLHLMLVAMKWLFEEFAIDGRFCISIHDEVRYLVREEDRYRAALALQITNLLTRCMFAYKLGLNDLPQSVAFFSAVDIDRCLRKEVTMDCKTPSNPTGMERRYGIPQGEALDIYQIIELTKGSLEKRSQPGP
# T1 sequence (Q9UHN1 1-485 partner): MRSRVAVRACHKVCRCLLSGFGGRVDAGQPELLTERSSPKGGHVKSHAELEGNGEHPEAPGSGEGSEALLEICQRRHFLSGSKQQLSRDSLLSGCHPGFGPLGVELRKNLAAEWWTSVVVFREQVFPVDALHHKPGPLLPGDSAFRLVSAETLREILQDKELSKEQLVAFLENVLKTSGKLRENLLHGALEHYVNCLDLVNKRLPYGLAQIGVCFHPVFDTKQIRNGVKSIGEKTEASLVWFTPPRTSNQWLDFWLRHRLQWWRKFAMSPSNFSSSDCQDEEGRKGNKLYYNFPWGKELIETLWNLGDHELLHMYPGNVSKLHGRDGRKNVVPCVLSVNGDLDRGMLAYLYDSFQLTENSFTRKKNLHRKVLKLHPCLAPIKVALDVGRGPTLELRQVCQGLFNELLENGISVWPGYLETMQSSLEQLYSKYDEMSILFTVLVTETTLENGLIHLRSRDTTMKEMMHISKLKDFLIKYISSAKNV
# Experiment: DNA polymerization assay, POLγA:A467T mutant
# Format: biochemical
# Settings: stimulation of polymerase activity, primed M13mp18 ssDNA, 37° C. 2 hours; read-out: A467T AC50
# Method: DNA Polymerization Assay to Monitor Effects on Human Wildtype POLγ and Four Disease-Causing Mutant Variants of Human POLγ.
# The ability of small molecules to stimulate the polymerase activity of POLγ was analyzed in a quantitative fluorescence SYBR Green I assay with fluorescence intensity (FI) readout.
# In the presence of dNTPs, wild type human POLγ and mutant derivatives thereof were incubated with single-stranded, circular M13mp18 ssDNA hybridized to a short DNA oligonucleotide that functions as a primer for initiation of DNA synthesis. POLγ and mutant derivatives thereof will extend the primer and use the M13mp18 molecule as a template to synthesize long stretches of double-stranded DNA. SYBR Green I, which is a double-stranded DNA-binding dye, was used to quantify formation of double-stranded DNA in the reaction. When bound to double-stranded DNA, SYBR Green I fluorescence increases by up to 100-fold.
# The assay was performed in the 384-well plate format. Upon addition of compounds, changes in double-stranded DNA synthesis activity can be monitored by following effects on fluorescent intensity.
# The reactions also contained the accessory POLγB subunit, and the human mitochondrial single-stranded DNA binding protein (mtSSB).
# The DNA template mixture used in the assay contained 0.5 nM primed M13 mp18 ssDNA, 400 nM mtSSB, 0.1 mM Tris-HCl (pH 8.0), 0.1 mM dNTP, 10 mM MgCl2, 0.1 mg/mL BSA, 1 mM TCEP solution, and 0.02% Triton X-100. The DNA template mixture for the wild type protein contained either 100 μM dNTP, 1 μM dNTP, or 0.1 μM dNTP, designated in Table 2 as 100 μM, 1 μM, and 0.1 μM, respectfully.
# Microplates with compounds (0.1 μL in each well) to be tested in the assay were prepared from 10 mM compound stocks in 100% DMSO, and equal amounts of DMSO without any compound were added to positive and negative control wells.
# The protein mixture was dispensed (5 μL into each well) into compound plates and incubated at 37° C. for 15 minutes. After incubation, 5 μL of the DNA template mixture was dispensed into each well. The plates were then incubated at 37° C. for 2 hours.
# During incubation, a combined stop buffer and detection reagent solution was prepared. The buffer contained 25 mM EDTA (pH 8.0), 0.02% Triton X-100, and SYBR Green I [Invitrogen] diluted 10,000× (for fluorescent readout). EDTA will stop the enzymatic reaction by chelating magnesium ions.
row,Compound,AC50
1,"Cc1cc(S(=O)(=O)Nc2cccc(C(=O)N(C)C(C)CO)c2)c(C)cc1Cl (single isomer, unassigned) [Example 14, 3-((4-chloro-2,5-dimethylphenyl)sulfonamido)-N-(1-hydroxypropan-2-yl)-N-methylbenzamide]",28 µM
2,"Cc1ccc(C)c(S(=O)(=O)Nc2cccc(C(=O)N3CCCCC3C#N)c2)c1 (stereo not drawn) [Example 2, N-(3-(2-cyanopiperidine-1-carbonyl)phenyl)-2,5-dimethylbenzenesulfonamide]",60 µM
3,"Cc1ccc(C)c(S(=O)(=O)Nc2cccc(C(=O)N3CCCCC3)c2)c1 [Example 3, 2,5-dimethyl-N-(3-(piperidine-1-carbonyl)phenyl)benzene sulfonamide]",48 µM
4,"Cc1ccc(C)c(S(=O)(=O)Nc2cccc(C(=O)NCC3CC3)c2)c1 [Example 4, N-(cyclopropylmethyl)-3-((2,5-dimethylphenyl)sulfonamido)benzamide]",52 µM
5,"Cc1ccc(C)c(S(=O)(=O)Nc2cccc(C(=O)N3CCCC[C@H]3C)c2)c1 [Example 5, (R)-2,5-dimethyl-N-(3-(2-methylpiperidine-1-carbonyl)phenyl)benzenesulfonamide]",33 µM
6,"Cc1ccc(C)c(S(=O)(=O)Nc2cccc(C(=O)N3CCCC[C@@H]3C)c2)c1 [Example 6, (S)-2,5-dimethyl-N-(3-(2-methylpiperidine-1-carbonyl)phenyl)benzenesulfonamide]",95 µM
7,"Cc1ccc(C)c(S(=O)(=O)Nc2cccc(C(=O)N3CCOCC3C#N)c2)c1 (stereo not drawn) [Example 7, N-(3-(3-cyanomorpholine-4-carbonyl)phenyl)-2,5-dimethylbenzenesulfonamide]",37 µM
8,"Cc1ccc(C)c(S(=O)(=O)Nc2cccc(C(=O)N[C@@H](C)C3CC3)c2)c1 [Example 8, (S)-N-(1-cyclopropylethyl)-3-((2,5-dimethylphenyl)sulfonamido)benzamide]",39 µM
9,"Cc1cc(S(=O)(=O)Nc2cccc(C(=O)N3CCCC[C@H]3C)c2)c(C)cc1Cl [Example 9, (R)-4-chloro-2,5-dimethyl-N-(3-(2-methylpiperidine-1-carbonyl)phenyl)benzenesulfonamide]",18 µM
10,"Cc1cc(S(=O)(=O)Nc2cccc(C(=O)N3CCC[C@H]3C)c2)c(C)cc1Cl [Example 10, (R)-4-chloro-2,5-dimethyl-N-(3-(2-methylpyrrolidine-1-carbonyl)phenyl)benzenesulfonamide]",12 µM
11,"Cc1cc(S(=O)(=O)Nc2cccc(C(=O)NCc3ccccc3)c2)c(C)cc1Cl [Example 11, N-benzyl-3-((4-chloro-2,5-dimethylphenyl)sulfonamido)benzamide]",49 µM
12,"Cc1cc(S(=O)(=O)Nc2cccc(C(=O)N(C)C)c2)c(C)cc1Cl [Example 12, 3-((4-chloro-2,5-dimethylphenyl)sulfonamido)-N,N-dimethylbenzamide]",45 µM
13,"Cc1cc(S(=O)(=O)Nc2cc(F)cc(C(=O)N3CCC[C@H]3C)c2)c(C)cc1Cl [Example 13, (R)-4-chloro-N-(3-fluoro-5-(2-methylpyrrolidine-1-carbonyl)phenyl)-2,5-dimethylbenzenesulfonamide]",33 µM
14,"Cc1cc(S(=O)(=O)Nc2cccc(-c3nccs3)c2)c(C)cc1Cl [Example 16, 4-chloro-2,5-dimethyl-N-(3-(thiazol-2-yl)phenyl)benzenesulfonamide]",5 µM
15,"Cc1cc(S(=O)(=O)Nc2cccc(-c3ncco3)c2)c(C)cc1Cl [Example 17, 4-chloro-2,5-dimethyl-N-(3-(oxazol-2-yl)phenyl)benzenesulfonamide]",6 µM
16,"Cc1cc(S(=O)(=O)Nc2cccc(-c3ccn(C)n3)c2)c(C)cc1Cl [Example 18, 4-chloro-2,5-dimethyl-N-(3-(1-methyl-1H-pyrazol-3-yl)phenyl)benzenesulfonamide]",17 µM
17,"Cc1cc(S(=O)(=O)Nc2cccc(-c3nccn3C)c2)c(C)cc1Cl [Example 19, 4-chloro-2,5-dimethyl-N-(3-(1-methyl-1H-imidazol-2-yl)phenyl)benzenesulfonamide]",11 µM
18,"Cc1cc(S(=O)(=O)Nc2cccc(-c3ncc(C(N)=O)s3)c2)c(C)cc1Cl [Example 92, 2-(3-((4-chloro-2,5-dimethylphenyl)sulfonamido)phenyl) thiazole-5-carboxamide]",> 100 µM
19,"CNC(=O)c1cnc(-c2cccc(NS(=O)(=O)c3cc(C)c(Cl)cc3C)c2)s1 [Example 93, 2-(3-((4-chloro-2,5-dimethylphenyl)sulfonamido)phenyl)-N-methylthiazole-5-carboxamide]",> 100 µM
20,"Cc1cc(S(=O)(=O)Nc2cccc(-c3ncc(C(=O)N(C)C)s3)c2)c(C)cc1Cl [Example 94, 2-(3-((4-chloro-2,5-dimethylphenyl)sulfonamido)phenyl)-N,N-dimethylthiazole-5-carboxamide]",> 100 µM
21,"Cc1cc(S(=O)(=O)N[C@H]2CCCN(C(=O)[C@H]3CCCN3C)C2)c(C)cc1Cl [Example 95, 4-chloro-2,5-dimethyl-N-((S)-1-(methyl-D-prolyl)piperidin-3-yl)benzenesulfonamide]",> 100 µM
22,"Cc1cc(S(=O)(=O)Nc2cccc(-c3ncc(C#N)s3)c2)c(C)cc1Cl [Example 96, 4-chloro-N-(3-(5-cyanothiazol-2-yl)phenyl)-2,5-dimethylbenzenesulfonamide]",24 µM
23,"Cc1cc(S(=O)(=O)Nc2cccc(-c3ncc(-c4nnn[nH]4)s3)c2)c(C)cc1Cl [Example 97, N-(3-(5-(1H-tetrazol-5-yl)thiazol-2-yl)phenyl)-4-chloro-2,5-dimethylbenzenesulfonamide]",> 100 µM
24,"Cc1cnc(-c2ccc(C)c(NS(=O)(=O)c3cc(C)c(Cl)cc3C)c2)s1 [Example 98, 4-chloro-2,5-dimethyl-N-(2-methyl-5-(5-methylthiazol-2-yl)phenyl)benzenesulfonamide]",> 100 µM
